# System: Parkinson's patients
# Assay: Patient studies of butyric acid/butyrate given with physician-directed medication
# Type: in vivo, human
# Protocol: The effect of butyric acid/butyrate was investigated in patient studies in which more than 1,000 test subjects have participated for at least one year each. A total amount of 6 g butyric acid or butyrate (as salt) was administered together with the physician-directed medication (levodopa etc.) in three daily doses with meals in the morning, at noon and in the evening.
# This is especially important because the usual medication for Parkinson's patients, not only with levodopa, can lead to considerable side effects such as dizziness, nausea, tachyarrhythmia, psychosis, dyskinesia and circulatory problems.
smiles,measurement,setting,value
"CCCC(=O)O [butyric acid/butyrate, butyric acid]","general condition, in particular with respect to the motor functions","more than 1,000 test subjects, at least one year each, total 6 g butyric acid or butyrate (as salt) in three daily doses with meals, together with levodopa etc.",Significant improvements
same,reduction of the amount of dopamine used by Parkinson's patients,patients treated with butyric acid/butyrate,at least 50%
same,"reduction of the amount of dopamine used by Parkinson's patients, in some cases","patients treated with butyric acid/butyrate, in some cases",up to 90%

# Source: patent publication US20220313634A1, “AGENT FOR THE PROPHYLACTIC AND/OR SUPPORTIVE THERAPEUTIC TREATMENT OF PARKINSON'S DISEASE” (priority 2017, published 2022)
